From patent publication US6875582B1 (priority 1999, dated 2005)

Tests used:
[1] = tested on: WT K. pneumoniae Tim 19 (TEM-1 beta-lactamase); type: cell-based, Klebsiella pneumoniae; details: for Resistance or sensitivity of clinical isolate: K. pneumoniae strain Tim 19 containing TEM-1 beta-lactamase; for Drug-Resistance Phenotype: WT K. pneumoniae Tim 19, TEM-1
[2] = tested on: K. pneumoniae Tim 19 CTX^R mutants; test: Multi-drug-resistance phenotype of CTX-selected mutants; type: cell-based, Klebsiella pneumoniae; details: CTX^R mutants (8 analyzed), MNNG continuous culture, selected with CTX 2-550 μg/ml
[3] = tested on: E. coli ATCC 11775; type: cell-based
[4] = tested on: E. coli 11775 NA^R mutants; test: Antimicrobial disk-diffusion test (antibiogram) of clones selected on nalidixic acid gradient plates; type: cell-based

SMILES: CO[C@@]1(NC(=O)Cc2cccs2)C(=O)N2C(C(=O)O)=C(COC(N)=O)CS[C@@H]21 [FOX, cefoxitin]
- Resistance or sensitivity of clinical isolate [1]: sensitive
- Drug-Resistance Phenotype [1]: CTX^S, CAZ^S, FOX^S, ATM^S
- Drug-Resistance Phenotype [2]: CTX^R, CAZ^R, FOX^R, ATM^R

SMILES: CC(C)(O/N=C(\C(=O)N[C@@H]1C(=O)N2C(C(=O)[O-])=C(C[n+]3ccccc3)CS[C@H]12)c1csc(N)n1)C(=O)O [CAZ, ceftazidime]
- Resistance or sensitivity of clinical isolate [1]: sensitive
- Drug-Resistance Phenotype [1]: CTX^S, CAZ^S, FOX^S, ATM^S
- Drug-Resistance Phenotype [2]: CTX^R, CAZ^R, FOX^R, ATM^R

SMILES: CCOS(C)(=O)=O [EMS, Ethyl Methanesulfonate]
- Mutant Frequencies (NA^R phenotype) [3]: 1.2 × 10^−7
- Survival (%) [3]: 64%

SMILES: C[C@H]1[C@H](NC(=O)/C(=N\OC(C)(C)C(=O)O)c2csc(N)n2)C(=O)N1S(=O)(=O)O [ATM, aztreonum]
- Drug-Resistance Phenotype [1]: CTX^S, CAZ^S, FOX^S, ATM^S
- Drug-Resistance Phenotype [2]: CTX^R, CAZ^R, FOX^R, ATM^R

SMILES: O=[N+]([O-])c1cc[n+]([O-])c2ccccc12 [NQO, 4Nitroquinoline-lxide]
- Mutant Frequencies (NA^R phenotype) [3]: 0.6 × 10^−8
- Survival (%) [3]: 77%

SMILES: CO/N=C(\C(=O)N[C@@H]1C(=O)N2C(C(=O)O)=C(COC(C)=O)CS[C@H]12)c1csc(N)n1 [CTX, cefotaxime]
- Resistance or sensitivity of clinical isolate [1]: sensitive
- Drug-Resistance Phenotype [1]: CTX^S, CAZ^S, FOX^S, ATM^S
- Drug-Resistance Phenotype [2]: CTX^R, CAZ^R, FOX^R, ATM^R

SMILES: CCn1cc(C(=O)O)c(=O)c2ccc(C)nc21 [NA, nalidixic acid]
- Phenotype (nalidixic acid resistance) ([4]; mutant D2C2-a, EMS continuous culture, 82 generations, Gly-81→Cys): Partially NA^R
- Phenotype (nalidixic acid resistance) ([4]; mutant D2C2-h, EMS continuous culture, 62 generations, Gly-81→Cys): Partially NA^R
- Phenotype (nalidixic acid resistance) ([4]; mutant D2C2-l, EMS continuous culture, 62 generations, Gly-82 (GAC)→Asn): Partially NA^R
- Phenotype (nalidixic acid resistance) ([4]; mutant D3NX-E5, EMS continuous culture, 135 generations, Ser-83→Leu): Completely NA^R
- Phenotype (nalidixic acid resistance) ([4]; mutant D3NX-E6, EMS continuous culture, 135 generations, Ser-83→Leu): Completely NA^R
- Phenotype (nalidixic acid resistance) ([4]; mutant D7NX-E1, EMS continuous culture, 403 generations, Ser-83→Leu): Completely NA^R
- Phenotype (nalidixic acid resistance) ([4]; mutant D7NX-E2, EMS continuous culture, 403 generations, Ser-83→Leu): Completely NA^R
- Phenotype (nalidixic acid resistance) ([4]; mutant NX-E09, EMS, batch culture, gyrA Asp-87→Ile): Partially NA^R
- Phenotype (nalidixic acid resistance) ([4]; mutant NX-E10, EMS, batch culture, gyrA Ser-83→Leu): Completely NA^R
- Phenotype (nalidixic acid resistance) ([4]; mutant NX-M3, MNNG, batch culture, gyrA Asp-87→Gly): Partially NA^R
- Phenotype (nalidixic acid resistance) ([4]; mutant NX-M5, MNNG, batch culture, gyrA Asp-87→Asn): Partially NA^R
- Phenotype (nalidixic acid resistance) ([4]; mutant NX-M6, MNNG, batch culture, gyrA Asp-87→Gly): Partially NA^R
- Phenotype (nalidixic acid resistance) ([4]; mutant NX-N6, NQO, batch culture, gyrA Ser-83→Leu): Completely NA^R

SMILES: CC1(C)S[C@@H]2[C@H](NC(=O)[C@H](N)c3ccccc3)C(=O)N2[C@H]1C(=O)O [ampicillin]
- Resistance or sensitivity of clinical isolate [1]: resistance
